From ChEMBL document CHEMBL1158243, “Hydroxycornexistin: A New Phytotoxin from Paecilomyces variotii” (J Nat Prod, 1996)
Calls of active or inactive are those of the source. The calls are words filed in the database; no cut-off is given here.

Tests used:
Format in all cases: functional, organism-based
Xanthium strumarium [1] = test: Herbicidal activity against Xanthium strumarium assessed as plant death at 7.81 ppm after 2 weeks
Ipomoea hederacea [2] = test: Herbicidal activity against Ipomoea hederacea assessed as plant death at 31.25 ppm after 2 weeks
Ipomoea hederacea [3] = test: Herbicidal activity against Ipomoea hederacea assessed as plant death at 15.63 ppm after 2 weeks
Ipomoea hederacea [4] = test: Herbicidal activity against Ipomoea hederacea assessed as plant death at 7.81 ppm after 2 weeks
Amaranthus [5] = test: Herbicidal activity against Amaranthus sp. assessed as plant death at 31.25 ppm after 2 weeks
Amaranthus [6] = test: Herbicidal activity against Amaranthus sp. assessed as plant death at 15.63 ppm after 2 weeks
Amaranthus [7] = test: Herbicidal activity against Amaranthus sp. assessed as plant death at 7.81 ppm after 2 weeks
Abutilon theophrasti = test: Herbicidal activity against Abutilon theophrasti assessed as plant death at 7.81 ppm after 2 weeks
Zea mays [8] = test: Herbicidal activity against Zea mays assessed as plant death at 7.81 ppm after 2 weeks
Triticum aestivum [9] = test: Herbicidal activity against Triticum aestivum assessed as plant death at 15.63 ppm after 2 weeks
Triticum aestivum [10] = test: Herbicidal activity against Triticum aestivum assessed as plant death at 7.81 ppm after 2 weeks
Echinochloa crus-galli = test: Herbicidal activity against Echinochloa crus-galli assessed as plant death at 7.81 ppm after 2 weeks
Sorghum bicolor [11] = test: Herbicidal activity against Sorghum bicolor assessed as plant death at 15.63 ppm after 2 weeks
Sorghum bicolor [12] = test: Herbicidal activity against Sorghum bicolor assessed as plant death at 7.81 ppm after 2 weeks
Avena sativa [13] = test: Herbicidal activity against Avena sativa assessed as plant death at 31.25 ppm after 2 weeks
Avena sativa [14] = test: Herbicidal activity against Avena sativa assessed as plant death at 15.63 ppm after 2 weeks
Avena sativa [15] = test: Herbicidal activity against Avena sativa assessed as plant death at 7.81 ppm after 2 weeks
Digitaria sanguinalis = test: Herbicidal activity against Digitaria sanguinalis assessed as plant death at 7.81 ppm after 2 weeks
Xanthium strumarium [16] = test: Herbicidal activity against Xanthium strumarium assessed as plant death at 31.25 ppm after 2 weeks
Fallopia convolvulus [17] = test: Herbicidal activity against Fallopia convolvulus assessed as plant death at 31.25 ppm after 2 weeks
Fallopia convolvulus [18] = test: Herbicidal activity against Fallopia convolvulus assessed as plant death at 15.63 ppm after 2 weeks
Zea mays [19] = test: Herbicidal activity against Zea mays assessed as plant death at 15.63 ppm after 2 weeks
Setaria faberi [20] = test: Herbicidal activity against Setaria faberi assessed as plant death at 15.63 ppm after 2 weeks
Setaria faberi [21] = test: Herbicidal activity against Setaria faberi assessed as plant death at 7.81 ppm after 2 weeks
Sorghum bicolor [22] = test: Herbicidal activity against Sorghum bicolor assessed as plant death at 31.25 ppm after 2 weeks

C/C=C1/CC2=C(C(=O)OC2=O)[C@H](CCC)[C@H](O)C(=O)C[C@@H]1O
Activity (Xanthium strumarium [1]): inactive
Activity (Ipomoea hederacea [2]): inactive
Activity (Ipomoea hederacea [3]): inactive
Activity (Ipomoea hederacea [4]): inactive
Activity (Amaranthus [5]): inactive
Activity (Amaranthus [6]): inactive
Activity (Amaranthus [7]): inactive
Activity (Abutilon theophrasti): inactive
Activity (Zea mays [8]): inactive
Activity (Triticum aestivum [9]): inactive
Activity (Triticum aestivum [10]): inactive
Activity (Echinochloa crus-galli): inactive
Activity (Sorghum bicolor [11]): inactive
Activity (Sorghum bicolor [12]): inactive
Activity (Avena sativa [13]): Active
Activity (Avena sativa [14]): inactive
Activity (Avena sativa [15]): inactive
Activity (Digitaria sanguinalis): inactive

CCC[C@H]1C2=C(C/C(=C/CO)[C@@H](O)CC(=O)[C@H]1O)C(=O)OC2=O
Activity (Xanthium strumarium [16]): Active
Activity (Ipomoea hederacea [3]): inactive
Activity (Ipomoea hederacea [4]): inactive
Activity (Amaranthus [7]): inactive
Activity (Fallopia convolvulus [17]): Active
Activity (Fallopia convolvulus [18]): Active
Activity (Zea mays [19]): inactive
Activity (Zea mays [8]): inactive
Activity (Echinochloa crus-galli): inactive
Activity (Setaria faberi [20]): inactive
Activity (Setaria faberi [21]): inactive
Activity (Sorghum bicolor [22]): inactive
Activity (Sorghum bicolor [11]): inactive
Activity (Sorghum bicolor [12]): inactive
